Assay results reported in PMC10762035, “Molecular basis of human trace amine-associated receptor 1 activation” (Nature Communications, 2024).
Changes are numbered by the printed parent chain. Values joined by “and” are separate entries in the source; they are usually repeats but may differ in a detail not shown here. Equal values may be shown once. Read-outs that look alike come from different tables or passages of the source.

How the values were obtained:
Format in all cases: cell-based
[1] = target: T1, hTA1 C96S (Homo sapiens, UniProt Q96RJ0, C96S); experiment: GloSensor cAMP accumulation assay, C96S mutant; settings: log[Compound]
T1 construct: expressed in transfected cells; host or cells: HEK293T
T1 sequence (Q96RJ0 1-339 C96S): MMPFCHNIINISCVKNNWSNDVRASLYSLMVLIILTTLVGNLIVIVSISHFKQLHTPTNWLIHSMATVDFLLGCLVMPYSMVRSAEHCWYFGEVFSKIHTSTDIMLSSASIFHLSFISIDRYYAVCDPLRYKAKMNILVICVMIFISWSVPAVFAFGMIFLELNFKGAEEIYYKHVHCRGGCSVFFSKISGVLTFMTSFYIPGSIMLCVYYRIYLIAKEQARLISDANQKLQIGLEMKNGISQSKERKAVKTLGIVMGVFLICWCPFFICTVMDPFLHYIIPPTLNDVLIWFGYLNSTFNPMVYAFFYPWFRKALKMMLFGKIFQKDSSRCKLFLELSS

[2] = target: T2, hTA1 C178S (Homo sapiens, UniProt Q96RJ0, C178S); experiment: GloSensor cAMP accumulation assay, C178S mutant; settings: for C178S - Normalized Luminescence Counts (N=2): log[Compound], single replicates
T2 construct: expressed in transfected cells; host or cells: HEK293T
T2 sequence (Q96RJ0 1-339 C178S): T1 sequence (Q96RJ0 1-339 C96S) with S96C, C178S

[3] = target: T3, hTA1 W264F (Homo sapiens, UniProt Q96RJ0, W264F); experiment: GloSensor cAMP accumulation assay, W264F mutant;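 note: cells transiently transfected with receptor plus GloSensor, luminescence read 30 min after agonist addition at room temperature, concentration-response curves fitted by log(agonist) vs response regression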
T3 construct: expressed in transfected cells; host or cells: HEK293T
T3 sequence (Q96RJ0 1-339 W264F): T1 sequence (Q96RJ0 1-339 C96S) with S96C, W264F

[4] = target: T4, hTA1 S107C (Homo sapiens, UniProt Q96RJ0, S107C); experiment: GloSensor cAMP accumulation assay, S107C mutant;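 note: cells transiently co-expressing receptor and GloSensor biosensor, luminescence read after 30 min agonist exposure at room temperature, concentration-response fitted by nonlinear regression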
T4 construct: expressed in transfected cells; host or cells: HEK293T
T4 sequence (Q96RJ0 1-339 S107C): T1 sequence (Q96RJ0 1-339 C96S) with S96C, S107C

[5] = target: T5, hTA1 I290N (Homo sapiens, UniProt Q96RJ0, I290N); experiment: GloSensor cAMP accumulation assay, I290N mutant;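 note: cells transiently co-expressing hTA1 and the GloSensor cAMP biosensor, luminescence read 30 min after compound addition at room temperature, efficacy scaled to the maximal β-PEA response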
T5 construct: expressed in transfected cells; host or cells: HEK293T
T5 sequence (Q96RJ0 1-339 I290N): T1 sequence (Q96RJ0 1-339 C96S) with S96C, I290N

CCc1[nH]nc(C(=O)Nc2ccc([C@H]3CNCCO3)cc2)c1C [ralmitaront]
Normalized Luminescence Counts ([1]; C96S, M = -5, single replicates (N=2)): 1.4045 and -2.55 and -5.186 and -2.698 and 26.3511 and -6.571 | Normalized Luminescence Counts ([1]; C96S, M = -5.522, single replicates (N=2)): -3.209 and -4.527 and -5.845 and -4.6346 and 8.922 and -0.7614 | Normalized Luminescence Counts ([1]; C96S, M = -6, single replicates (N=2)): -3.209 and -2.55 and -5.186 and 8.922 and 1.175 and 18.6047 | Normalized Luminescence Counts ([1]; C96S, M = -6.522, single replicates (N=2)): -5.186 (2×) and -3.209 and -6.571 and -12.381 and 39.9073 | Normalized Luminescence Counts ([1]; C96S, M = -7, single replicates (N=2)): -5.845 and -1.232 and -3.868 and 3.112 and -12.381 and 8.922 | Normalized Luminescence Counts ([1]; C96S, M = -7.522, single replicates (N=2)): -5.845 and -2.55 and -6.504 and 10.8582 (2×) and -6.571 | Normalized Luminescence Counts ([1]; C96S, M = -8, single replicates (N=2)): -1.232 and -0.5726 and -2.55 and 20.5413 and -0.7614 and 37.9707 | Normalized Luminescence Counts ([1]; C96S, M = -8.522, single replicates (N=2)): -1.891 (2×) and -3.209 and -0.7614 (2×) and 14.7315 | Normalized Luminescence Counts ([1]; C96S, M = -9, single replicates (N=2)): -3.209 and -0.5726 and -2.55 and 6.985 and 8.922 and 5.048 | Normalized Luminescence Counts ([1]; C96S, M = -9.522, single replicates (N=2)): -3.209 and -3.868 and -1.232 and 24.4145 and 3.112 and -8.508 | Normalized Luminescence Counts ([1]; C96S, M = -10, single replicates (N=2)): -3.868 and -0.5726 and -1.232 and -0.7614 and -16.2542 (2×) | Normalized Luminescence Counts ([1]; C96S, M = -10.522, single replicates (N=2)): -2.55 (2×) and -1.232 and -6.571 and -22.0641 and -10.4444 | Normalized Luminescence Counts ([1]; C96S, M = -11, single replicates (N=2)): 0.7455 and 2.064 and -1.232 and 20.5413 and -12.381 and -10.4444 | Normalized Luminescence Counts ([1]; C96S, M = -11.522, single replicates (N=2)): 0.7455 and 3.382 and 1.4045 and 16.6681 | Normalized Luminescence Counts ([1]; M = -11.522, single replicates, mutant block above C178S): -0.2239 and -0.1784 and -0.4742 and 3.153 and 1.07 and 2.833 | Normalized Luminescence Counts ([1]; M = -12, single replicates, mutant block above C178S): -0.6336 and -0.2466 and -0.7474 and 2.192 and 1.657 and 3.26 | Normalized Luminescence Counts ([1]; M = -12.522, single replicates, mutant block above C178S): -0.7701 (2×) and -0.4515 and 1.764 and 0.7492 and 1.497 | ΔpEC50 values (each mutant value - WT average), Mean ([2]; C178S, each row one experiment (N=2), 3 replicates): -0.4487 and -0.0445 | Emax ([2]; C178S, n=2, read-out: Span ± SEM (Emax normalized to β-PEA)): 69.5 ± 2.9% | Emax ([2]; C178S, relative to β-PEA, read-out: Emax): 69.5% | Emax values, Mean ([2]; C178S, β-PEA = 100, each row one experiment (N=2), 3 replicates): 72.4383 | Emax ([2]; C178S, β-PEA = 100, each row one experiment (N=2), 3 replicates, read-out: Emax values, Mean): 66.6% | C178S - Normalized Luminescence Counts (N=2) ([2]; M = -5): 73.8012 and 62.4927 and 60.9506 and 66.8043 and 64.022 and 61.0303 | C178S - Normalized Luminescence Counts (N=2) ([2]; M = -5.522): 57.6328 and 63.2871 and 59.3151 and 75.9888 and 75.2109 and 62.2569 | C178S - Normalized Luminescence Counts (N=2) ([2]; M = -6): 43.2869 and 48.3804 and 55.2496 and 74.2835 and 69.4968 | C178S - Normalized Luminescence Counts (N=2) ([2]; M = -6.522): 30.9035 and 28.8942 and 35.67 and 44.4265 and 49.1234 and 56.9916 | C178S - Normalized Luminescence Counts (N=2) ([2]; M = -7): 14.8753 and 16.3239 and 23.7072 and 27.2542 and 34.494 and 27.6431 | C178S - Normalized Luminescence Counts (N=2) ([2]; M = -7.522): 4.642 and 7.866 and 7.3986 and 13.4924 and 12.7145 and 13.5821 | C178S - Normalized Luminescence Counts (N=2) ([2]; M = -8): 1.277 and 2.445 and 2.959 and 5.594 and 6.073 and 4.936 | C178S - Normalized Luminescence Counts (N=2) ([2]; M = -8.522): -0.2183 and 0.7163 and 2.0247 and 0.7179 and 1.526 and 2.842 | C178S - Normalized Luminescence Counts (N=2) ([2]; M = -9): -0.3585 and 0.1555 and -0.03139 and 0.4785 and 0.3289 and 2.214 | C178S - Normalized Luminescence Counts (N=2) ([2]; M = -9.522): -1.433 and 1.137 and -0.6389 and -0.0001415 and -0.6284 and -0.3292 | C178S - Normalized Luminescence Counts (N=2) ([2]; M = -10): -1.1529 and -1.2 and -1.106 and 0.05969 and -0.9575 and -1.5259 | C178S - Normalized Luminescence Counts (N=2) ([2]; M = -10.522): -0.5454 and -0.2183 and -0.8258 and -2.334 and -1.855 and -2.154 | C178S - Normalized Luminescence Counts (N=2) ([2]; M = -11): -0.3585 and -0.2183 and -0.4987 and 0.6281 and 0.3589 and 0.4785 | C178S - Normalized Luminescence Counts (N=2) ([2]; M = -11.522): -0.3585 and -0.07812 and 0.1555 and 0.5384 and -0.08989 and -0.419 | C178S - Normalized Luminescence Counts (N=2) ([2]; M = -12): -0.966 (2×) and -0.3585 and -0.8079 and -2.005 and -0.9874 | C178S - Normalized Luminescence Counts (N=2) ([2]; M = -12.522): 1.09 and -0.2183 and -0.8725 and 0.3888 and -1.137 and -2.364 | ΔEmax values (each mutant value - WT average) ([3]; W246F mutant (so in the source) minus WT average): -7.264 | Emax values, Mean ([3]; W246F mutant (so in the source), β-PEA = 100, each line an independent experiment, 3 replicates): 47.4013 | Emax ([3]; W246F mutant (so in the source), β-PEA = 100, each line an independent experiment, 3 replicates, read-out: Emax values (Mean)): 32.8% | Emax ([3]; W264F, n=2, read-out: Span ± SEM (Emax normalized to β-PEA)): 40.1 ± 7.28% | ΔEmax values (each mutant value - WT average) ([4]; S107C mutant minus WT average): 1.2358 | Emax values, Mean ([4]; S107C mutant, β-PEA = 100, each line an independent experiment, 3 replicates): 57.0471 | Emax ([4]; S107C mutant, β-PEA = 100, each line an independent experiment, 3 replicates, read-out: Emax values (Mean)): 41.3% | Emax ([4]; S107C, n=2, read-out: Span ± SEM (Emax normalized to β-PEA)): 49.2 ± 7.85% | Emax ([5]; I290N, n=2, read-out: Span ± SEM (Emax normalized to β-PEA)): 43.6 ± 5.35% | cAMP accumulation response, single replicate values (source data, Supplementary Figure 5) ([5]; hTA1 I290N (N=2), log[Compound], M = -5): 44.9736 and 36.855 and 39.1073 and 50.4588 | Emax values, Mean ([5]; hTA1 I290N mutant, β-PEA set to 100, each grid row a separate experiment, 3 replicates): 38.2871 | Emax ([5]; hTA1 I290N mutant, β-PEA set to 100, each grid row a separate experiment, 3 replicates, read-out: Emax values (Mean)): 49%
